Counter-ions that a name gives are not always drawn. Like-named read-outs stand apart in the source and are kept apart here. Blank lines part the entries; values can stand above or below the compound they belong to.
What was measured:
NR1a/NR2B = NR1a/NR2B (Rattus norvegicus, UniProt P35439+Q00960); experiment: Electrophysiological assay at NMDA receptor subunits expressed in Xenopus oocytes (two-electrode voltage clamp); assay type: cell-based
Procedure: The clones were transformed into appropriate host bacteria and plasmid preparations were made with conventional DNA purification techniques. A sample of each clone was linearized by restriction enzyme digestion […] was synthesized with T3 RNA polymerase. The cRNA was diluted to 400 ng/μL and stored in 1 μL aliquots at −80° C. until injection.
The Xenopus Oocyte Expression System. […] Follicle-enclosed oocytes were micro-injected with 1:1 mixtures of NR1A:NR2A, 2B or 2C.; injecting 1 to 10 ng of RNA encoding each receptor subunit. NR1A encoding RNA was injected alone at ˜20 ng. Oocytes were stored in Barth's medium containing (in mM): NaCl, 88; KCl, 1; CaCl2, 0.41; Ca (NO3)2, 0.33; MgSO4, 0.82; NaHCO3, 2.4; HEPES 5, pH 7.4, with 0.11 mg/ml gentamicin sulphate. While oocytes were still surrounded by enveloping ovarian tissues, the Barth's medium was supplemented with 0.1% bovine serum.
Drugs were applied by bath perfusion. Using oocytes expressing different subunit combinations of NMDA receptor, NMDA currents were activated by co-application of glutamate (100 μM) and glycine (1-100 μM). Inhibitory potency of the novel antagonists was assessed on responses elicited by fixed concentrations of glutamate and glycine, by measuring reductions in current induced by progressively increasing concentrations of antagonist.
Concentration-inhibition curves were fit with Equation 1. […] For incomplete curves analysis by fitting was unreliable and IC50 values were calculated by simple regression over linear portions of the curves (Origin: Microcal Software).

[1] = Table 1, cloned rat NMDA receptor subunits in Xenopus oocytes, currents activated by glutamate (100 μM) and glycine (1-100 μM), read-out: NR1a/NR2B Oocyte IC50
[2] = Table 2, head names no subunit, electrophysiological assay results, read-out: IC50
[3] = Table 3, cloned rat NMDA receptor subunits in Xenopus oocytes, read-out: NR1a/NR2B Oocyte IC50

Sequence of NR1a/NR2B (Q00960 27-1482, other chains not shown): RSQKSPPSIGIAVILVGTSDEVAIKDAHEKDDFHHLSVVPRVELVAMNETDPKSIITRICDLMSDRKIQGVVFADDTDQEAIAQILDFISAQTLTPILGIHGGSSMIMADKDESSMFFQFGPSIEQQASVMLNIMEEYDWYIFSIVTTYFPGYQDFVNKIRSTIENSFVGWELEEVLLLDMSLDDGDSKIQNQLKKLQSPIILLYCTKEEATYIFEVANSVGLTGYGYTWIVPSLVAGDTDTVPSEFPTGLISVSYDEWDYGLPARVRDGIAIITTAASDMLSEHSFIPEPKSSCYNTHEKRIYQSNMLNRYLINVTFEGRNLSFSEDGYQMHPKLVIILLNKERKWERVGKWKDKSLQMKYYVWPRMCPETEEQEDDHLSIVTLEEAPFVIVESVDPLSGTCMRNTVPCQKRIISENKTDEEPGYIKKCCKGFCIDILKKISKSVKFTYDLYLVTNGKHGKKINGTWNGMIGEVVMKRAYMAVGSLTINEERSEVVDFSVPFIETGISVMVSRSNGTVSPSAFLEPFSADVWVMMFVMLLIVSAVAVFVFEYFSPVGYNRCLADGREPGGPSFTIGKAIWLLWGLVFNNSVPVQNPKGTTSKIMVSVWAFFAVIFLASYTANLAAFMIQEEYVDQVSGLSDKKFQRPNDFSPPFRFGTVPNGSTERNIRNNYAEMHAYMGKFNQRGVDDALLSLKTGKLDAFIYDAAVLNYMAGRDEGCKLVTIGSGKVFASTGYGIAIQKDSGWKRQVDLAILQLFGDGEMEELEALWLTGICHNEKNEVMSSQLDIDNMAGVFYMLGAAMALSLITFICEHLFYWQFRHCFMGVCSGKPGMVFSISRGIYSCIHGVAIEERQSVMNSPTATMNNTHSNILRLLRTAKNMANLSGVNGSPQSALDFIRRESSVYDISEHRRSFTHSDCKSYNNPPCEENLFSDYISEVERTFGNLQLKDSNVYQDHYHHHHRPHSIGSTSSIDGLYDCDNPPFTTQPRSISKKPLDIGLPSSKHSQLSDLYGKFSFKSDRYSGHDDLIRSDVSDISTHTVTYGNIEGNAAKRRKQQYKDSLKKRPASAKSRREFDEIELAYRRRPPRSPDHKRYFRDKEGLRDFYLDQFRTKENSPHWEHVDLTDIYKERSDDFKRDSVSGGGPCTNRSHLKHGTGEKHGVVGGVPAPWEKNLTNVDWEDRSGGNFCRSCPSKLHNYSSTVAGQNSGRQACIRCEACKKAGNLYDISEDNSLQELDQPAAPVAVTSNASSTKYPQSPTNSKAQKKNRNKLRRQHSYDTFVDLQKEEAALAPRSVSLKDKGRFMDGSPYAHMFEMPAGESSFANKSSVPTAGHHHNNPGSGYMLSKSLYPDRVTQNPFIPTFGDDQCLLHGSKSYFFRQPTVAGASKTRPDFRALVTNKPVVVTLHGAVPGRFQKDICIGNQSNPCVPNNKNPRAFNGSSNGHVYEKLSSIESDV

SMILES: Oc1ccc([C@H]2CC[C@H](NCCCCCc3ccccc3)CC2)cc1 (as salt: HCl) [Example 9, 4-[4-(5-Phenylpentylamino)cyclohexyl]phenol]
melting point: 252 to 260 °C

SMILES: COc1ccc(CCCN[C@H]2CC[C@H](c3ccc(O)cc3)CC2)cc1 (as salt: HCl) [Example 28, Trans-4-{4-[3-(4-methoxyphenyl)propylamino]cyclohexyl}phenol]
melting point: 235 to 241 °C

SMILES: Oc1ccc([C@H]2CC[C@H](NCCCCc3ccccc3)CC2)cc1 [Example 1b, trans-4-[4-(4-Phenylbutylamino)cyclohexyl]phenol]
IC50 (NR1a/NR2B; [1]): 35 nM

SMILES: Oc1ccc([C@H]2CC[C@H](NCCc3ccc(F)cc3)CC2)cc1 [Example 5b, trans-4-{4-[2-(4-Fluorophenyl)ethylamino]cyclohexyl}phenol]
IC50 (NR1a/NR2B; Table 4, cloned rat NMDA receptor subunits in Xenopus oocytes, read-out: NR1a/NR2B Oocyte IC50): 750 nM

SMILES: Oc1ccc([C@H]2CC[C@H](NCCCCCc3ccccc3)CC2)cc1 [Example 9, 4-[4-(5-Phenylpentylamino)cyclohexyl]phenol]
IC50 (NR1a/NR2B; [1]): 350 nM

SMILES: Oc1ccc([C@H]2CC[C@H](NCC#Cc3ccccc3)CC2)cc1 [Example 23, Trans-4-[4-(3-phenylprop-2-ynylamino)cyclohexyl]phenol]
IC50 (NR1a/NR2B; [2]): 50 nM

SMILES: Oc1ccc([C@H]2CC[C@H](NCCSc3ccccc3)CC2)cc1 [Example 24, 4-[4-(2-Phenylsulfanylethylamino)cyclohexyl]phenol]
IC50 (NR1a/NR2B; [2]): 40 nM

SMILES: Oc1ccc([C@H]2CC[C@H](NCCNc3ccccc3)CC2)cc1 [Example 25, Trans-4-[4-(2-phenylaminoethylamino)cyclohexyl]phenol]
IC50 (NR1a/NR2B; [2]): 50 nM

More lines, now with the values ahead:

IC50 (NR1a/NR2B; [1]): 600 nM
SMILES: Oc1ccc([C@H]2CC[C@@H](NCCCc3ccccc3)CC2)cc1 [Example 2a, cis-4-[4-(3-Phenylpropylamino)cyclohexyl]phenol]

IC50 (NR1a/NR2B; [1]): 34 nM
SMILES: Oc1ccc([C@H]2CC[C@H](NCCCc3ccccc3)CC2)cc1 [Example 2b, trans-4-[4-(3-Phenylpropylamino)cyclohexyl]phenol]

IC50 (NR1a/NR2B; [1]): 450 nM
SMILES: Oc1ccc([C@H]2CC[C@H](NCCc3ccccc3)CC2)cc1 [Example 3b, trans-4-(4-Phenethylamiocyclohexyl)phenol]

IC50 (NR1a/NR2B; [2]): 600 nM
SMILES: CC(CCc1ccccc1)N[C@H]1CC[C@@H](c2ccc(O)cc2)CC1 (stereo partly drawn) [Example 6a, cis-4-[4-(1-Methyl-3-phenylpropylamino)cyclohexyl]phenol]

IC50 (NR1a/NR2B; [2]): 100 nM
SMILES: CC(CCc1ccccc1)N[C@H]1CC[C@H](c2ccc(O)cc2)CC1 (stereo partly drawn) [Example 6b, trans-4-[4-(1-Methyl-3-phenylpropylamino)cyclohexyl]phenol]

IC50 (NR1a/NR2B; [3]): 135000 nM
SMILES: Oc1ccc([C@H]2CC[C@@H](NCc3cccnc3)CC2)cc1 [Example 7a, cis-4-{4-[(Pyridin-3-ylmethyl)amino]cyclohexyl}phenol]

IC50 (NR1a/NR2B; [3]): 100000 nM
SMILES: Oc1ccc([C@H]2CC[C@H](NCc3cccnc3)CC2)cc1 [Example 7b, trans-4-{4-[(Pyridin-3-ylmethyl)amino]cyclohexyl}phenol]

IC50 (NR1a/NR2B; [2]): 29000 nM
SMILES: OC[C@@H](Cc1ccccc1)N[C@H]1CC[C@@H](c2ccc(O)cc2)CC1 [Example 10a, cis-4-[4-((R)-1-Hydroxymethyl-2-phenylethylamino)cyclohexyl]phenol]

IC50 (NR1a/NR2B; [2]): 5000 nM
SMILES: OC[C@@H](Cc1ccccc1)N[C@H]1CC[C@H](c2ccc(O)cc2)CC1 [Example 10b, trans-4-[4-((R)-1-Hydroxymethyl-2-phenylethylamino)cyclohexyl]phenol]

IC50 (NR1a/NR2B; [2]): 2000 nM
SMILES: Oc1ccc([C@H]2CC[C@@H](NCCOc3ccccc3)CC2)cc1 [Example 11a, cis-4-[4-(2-Phenoxyethylamino)cyclohexyl]phenol]

IC50 (NR1a/NR2B; [2]): 20 nM
SMILES: Oc1ccc([C@H]2CC[C@H](NCCOc3ccccc3)CC2)cc1 [Example 11b, trans-4-[4-(2-Phenoxyethylamino)cyclohexyl]phenol]

IC50 (NR1a/NR2B; [3]): 11500 nM
SMILES: Oc1ccc([C@H]2CC[C@@H](NCCCc3ccccn3)CC2)cc1 [Example 15a, cis-4-[4-(3-Pyridin-2-ylpropylamino)cyclohexyl]phenol]

IC50 (NR1a/NR2B; [3]): 530 nM
SMILES: Oc1ccc([C@H]2CC[C@H](NCCCc3ccccn3)CC2)cc1 [Example 15b, trans-4′-(3-Pyridin-2-ylpropylamino)cyclohexylphenol]

Reference: patent publication US6919377B2, “Cyclohexylamine derivative as subtype selective NMDA receptor antagonists” (Warner Lambert Company LLC, priority 2000, dated 2005)
